# Experiments:
# [1] = Organ-body indices and signs of toxicity in the xenograft model; details: q3d, 3 weeks
# Ki-67 = Ki-67 immunohistochemical staining of tumor slides; assay type: in vivo, Female BALB/c nude mice; details: 6.87, 10.30, 13.73 mg/kg q3d, p < 0.01
# Protocol: The tumor slides of MDA-MB-231 xenograft mice were deparaffinized and rehydrated as per the method described above. Next, slides were boiled in citrate antigen retrieval solution for 2 min and then blocked with 3% H2O2 for 10 min. After washing, slides were incubated with primary Ki-67 antibody (1:400, Abcam AB15580) at 4 °C overnight, followed by incubation with the goat anti-rabbit HRP-conjugated secondary antibody (1:500) for 1 h at RT. Finally, slides were stained with DAB chromogenic reagent and hematoxylin. Images were visualized using a Zeiss microscope (Carl Zeiss Meditec AG, Jena, Germany). Three separate visual fields were randomly selected from each slice. The percentage of the positive area was semi-quantitatively analyzed with the Image-J software.
# Bax = assay: Western blot of xenograft tumor tissues; assay type: in vivo, Female BALB/c nude mice; details: 6.87, 10.30, 13.73 mg/kg q3d, dose-dependent, p < 0.01
# Protocol: (§1) The removed tumor tissues were cut into pieces and homogenized in RIPA lysis buffer (Cat#P0013B; Beyotime, Shanghai, China) containing PMSF protease inhibitor (Cat#ST506; Beyotime, Shanghai, China) (RIPA: PMSF = 100:1) using a glass homogenizer on ice for 30 min. The lysates were harvested by centrifugation (12,000 rpm) at 4 °C for 5 min. The protein concentrations were measured by BCA Protein Assay Kit (Beyotime, Shanghai, China) and boiled at 95 °C for 5 min. Then, equal amounts of proteins (30 μg) from five groups were separated by 10% SDS-PAGE and transferred to PVDF membranes (EMD Millipore, Billerica, MA, USA). The membranes were blocked with 5% non-fat milk for 2 h and washed with TBST buffer. Next, membranes were incubated with primary antibodies (β-actin, cleaved caspase-3, Bax, Bcl-2) at a dilution of 1:1000 at 4 °C overnight, followed by the goat anti-rabbit HRP-conjugated secondary antibody (1:5000) for 2 h at room temperature. β-actin was used as an internal control. Protein bands were visualized by a chemiluminescence detection system (Bio-Rad, Hercules, CA, USA) and quantitated using the Image-J software.
# cleaved caspase-3 = assay: Western blot of xenograft tumor tissues; assay type: in vivo, Female BALB/c nude mice; details: 6.87, 10.30, 13.73 mg/kg q3d, dose-dependent, p < 0.01
# Protocol: as §1
# Bcl-2 = assay: Western blot of xenograft tumor tissues; assay type: in vivo, Female BALB/c nude mice; details: 6.87, 10.30, 13.73 mg/kg q3d, dose-dependent, p < 0.01
# Protocol: as §1
# [2] = test system: microtubules in MDA-MB-231 cells; assay: Immunofluorescence staining of microtubules (α-tubulin antibody); assay type: cell-based, Human; details: MDA-MB-231, 0.1 nM, 48 h
# Protocol: Cells were fixed with 4% paraformaldehyde for 20 min, permeabilized with 0.1%Triton X-100 for 5 min, and blocked with 1% BSA for 1.5 h. Next, cells were incubated with α-tubulin antibody (1:400 Abcam, AB52866) at 4 °C overnight, followed by the Alexa Fluor 488 conjugated goat anti-rabbit IgG secondary antibody (1:300, ZF-0511, Zhongshan Goldenbridge Biotechnology, Beijing, China). Finally, nuclei were stained with DAPI for 4 min. Stained cells were observed using a laser confocal microscope (LSM700; Zeiss, Gottingen, Germany). The PTX-treated group was used as a positive control.
# MDA-MB-231 cells [3] = assay: Transmission electron microscopy of treated cells; assay type: cell-based, Human; details: MDA-MB-231, 0.1 nM, 48 h
# Protocol: Ultrathin sections were isolated, stained with uranyl acetate and lead citrate for 10 min, and finally observed through the Hitachi H-7650 transmission electron microscope (Tokyo, Japan). The PTX-treated group was used as a positive control.
# MDA-MB-231 cells [4] = assay: Annexin V-FITC/PI flow cytometry apoptosis assay; assay type: cell-based, Human; details: 48 h
# Protocol: Cell apoptosis analysis was performed according to the manufacturer’s protocol of the Annexin V-FITC Detection kit (Beyotime, Shanghai, China). […] Finally, the samples were tested by flow cytometer (BD FACSCelesta) and analyzed using FlowJo Software (Tree Star Inc., Ashland, OR, USA). The PTX-treated group was used as a positive control.
# MCF-7 = assay: cells; details: Homo sapiens, MCF7, 48 h
# MCF 10A = assay type: cell-based; details: Homo sapiens, 48 h
# MDA-MB-231 = assay: cells; details: Homo sapiens, MDA-MB-231, 48 h
# [5] = Acute-toxicity experiment, single dose via tail vein
# 4T1 = details: SI = IC50 MCF 10A/IC50 4T1, 48 h
# [6] = test system: MDA-MB-231 xenograft tumor tissue; assay: TUNEL assay of tumor slides; assay type: in vivo, Female BALB/c nude mice; details: PTX-TTHA 6.87-13.73 mg/kg q3d; PTX 10 mg/kg q7d
# Protocol: The tumor slides of MDA-MB-231 xenograft mice were deparaffinized and rehydrated as per the method described above. Then, the TUNEL assay was performed according to the manufacturer’s instructions. Briefly, slides were permeabilized with proteinase K for 20 min and blocked with 3% H2O2 for 10 min. After washing, slides were incubated with Biotin labeling solution for 1 h, and the nucleus was counterstained with DAPI for 1 min. The localized red fluorescence of the apoptotic cells was visualized by fluorescence microscopy. Two experienced pathologists randomly selected 10 (×200) fields for every slide and then analyzed them. The percentage of TUNEL-positive cells among total cells was semi-quantitatively measured with the Image-J software.
smiles,measurement,setting,value
"CC(=O)O[C@H]1C(=O)[C@@]2(C)[C@H]([C@H](OC(=O)c3ccccc3)[C@]3(O)C[C@H](OC(=O)[C@H](OC(=O)CN(CCN(CCN(CCN(CC(=O)O)CC(=O)O)CC(=O)O)CC(=O)O)CC(=O)O)[C@@H](NC(=O)c4ccccc4)c4ccccc4)C(C)=C1C3(C)C)[C@]1(OC(C)=O)CO[C@@H]1C[C@@H]2O [PTX-TTHA, 3,6,9,12-Tetraazatetradecanedioic acid, 3,6,9,12-tetrakis(carboxymethyl)-1-[2-(benzoylamino)-1-[[[6,12b-bis(acetyloxy)-12-(benzoyloxy)-2a,3,4,4a,5,6,9,10,11,12,12a,12b-dodecahydro-4,11-dihydroxy-4a,8,13,13-tetramethyl-5-oxo-7,11-methano-1H-cyclodeca [3, 4]benz [1,2-b]oxet-9-yl]oxy]carbonyl]-2-phenylethyl] ester]",signs of toxicity during treatment,"[1]; 6.87, 10.30, 13.73 mg/kg, tail vein",No noticeable signs of toxicity were observed
same,"organ-body index, Heart","[1]; HPTX-TTHA, 13.73 mg/kg",5.56 ± 0.49 mg/g
same,"organ-body index, Kidney","[1]; HPTX-TTHA, 13.73 mg/kg",16.09 ± 0.50 mg/g
same,"organ-body index, Liver","[1]; HPTX-TTHA, 13.73 mg/kg",63.73 ± 5.63 mg/g
same,"organ-body index, Lung","[1]; HPTX-TTHA, 13.73 mg/kg",7.28 ± 0.73 mg/g
same,"organ-body index, Spleen","[1]; HPTX-TTHA, 13.73 mg/kg",6.20 ± 0.65 mg/g
same,"organ-body index, Heart","[1]; LPTX-TTHA, 6.87 mg/kg",5.56 ± 0.63 mg/g
same,"organ-body index, Kidney","[1]; LPTX-TTHA, 6.87 mg/kg",16.03 ± 0.49 mg/g
same,"organ-body index, Liver","[1]; LPTX-TTHA, 6.87 mg/kg",63.63 ± 4.54 mg/g
same,"organ-body index, Lung","[1]; LPTX-TTHA, 6.87 mg/kg",7.29 ± 0.79 mg/g
same,"organ-body index, Spleen","[1]; LPTX-TTHA, 6.87 mg/kg",6.35 ± 0.51 mg/g
same,"organ-body index, Heart","[1]; MPTX-TTHA, 10.30 mg/kg",5.49 ± 0.15 mg/g
same,"organ-body index, Kidney","[1]; MPTX-TTHA, 10.30 mg/kg",16.05 ± 0.47 mg/g
same,"organ-body index, Liver","[1]; MPTX-TTHA, 10.30 mg/kg",63.20 ± 5.17 mg/g
same,"organ-body index, Lung","[1]; MPTX-TTHA, 10.30 mg/kg",7.16 ± 0.61 mg/g
same,"organ-body index, Spleen","[1]; MPTX-TTHA, 10.30 mg/kg",6.16 ± 1.05 mg/g
same,Ki-67 expression in tumor tissues compared with the control group,Ki-67,significantly reduced
same,Bax expression level in tumor compared with the control group,Bax,significantly upregulated
same,cleaved caspase-3 expression level in tumor compared with the control group,cleaved caspase-3,significantly upregulated
same,Bcl-2 expression level in tumor compared with the control group,Bcl-2,significantly downregulated
same,microtubule fluorescence intensity compared with the control group,[2],enhanced fluorescence intensity of microtubules
same,morphological changes of apoptosis (TEM),MDA-MB-231 cells [3],remarkable cellular apoptosis-related characteristics were observed
same,cell apoptosis rate,"MDA-MB-231 cells [4]; 0.1 nM, control 2.17% ± 0.76%",30.4% ± 3.61
same,cell apoptosis rate,MDA-MB-231 cells [4]; 1 nM,50.5% ± 2.19
same,IC50,MCF-7,15.8 ± 1.04 nM
same,IC50,MCF 10A,367 ± 8.2 nM
same,IC50,MDA-MB-231,12.7 ± 1.34 nM
same,histopathology of main organs (H&E),"[5]; 138.6 mg/kg, single dose",No histological alterations were observed
same,body weight change compared with controls,"[5]; 138.6 mg/kg, single dose, day 2, normal thereafter",slight weight loss
same,blood biochemical and hematological test index values compared with control,"[5]; 138.6 mg/kg, single dose, day 3 and day 14",no significant differences
same,toxic signs after administration,"[5]; 138.6 mg/kg, single dose, tail vein, 14 days",none of these toxic signs were observed
same,"acute toxicity on vital organs, hematological, and biochemical parameters","[5]; limit dose 138.6 mg/kg, i.v.",no sign of acute toxicity
same,selectivity index (SI),4T1,21.36
same,TUNEL signal of apoptotic cells in tumor tissue,[6],strong red fluorescent signal

# Reference: article PMC10180349 (Molecules, 2023)
